Experimental data reported in patent publication US20100267561A1, “HERBICIDAL PYRIDAZINONE DERIVATIVES” (priority 2007, published 2010).

What was measured:
Type in all cases: in vivo
[1] = test system: winter barley (Hordeum vulgare); experiment: Test B postemergence plant response; conditions: for Plant response rating, Barley: Postemergence, scale 0 to 100, 0 no effect, 100 complete control
In short: (§1)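 Postemergence greenhouse test; plants at 2 to 18 cm (1- to 4-leaf stage) given formulated test chemical, held 13 to 15 days, then visually rated against untreated controls on a 0 (no effect) to 100 (complete control) scale; dash means no result.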

[2] = test system: chickweed (Stellaria media); experiment: Test B postemergence plant response; conditions: for Plant response rating, Chickweed: Postemergence
In short: as §1

[3] = test system: windgrass (Apera spica-venti); experiment: Test B postemergence plant response; conditions: for Plant response rating, Windgrass: Postemergence
In short: as §1

soybean (Glycine max) = experiment: Test B pre-/postemergence plant response
In short: (§2)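 Preemergence and postemergence (plants 2-18 cm, 1- to 4-leaf stage) applications used test chemicals in a non-phytotoxic solvent with surfactant. Plants were held in a greenhouse 13 to 15 days, then rated visually against controls on a 0-100 scale (0 no effect, 100 complete control).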

[4] = test system: wheat (Triticum aestivum); experiment: Test B pre-/postemergence plant response
In short: as §2

[5] = test system: goosegrass (Eleusine indica); experiment: Test B pre-/postemergence plant response
In short: as §2

[6] = test system: Russian thistle (Salsola iberica); experiment: Test B pre-/postemergence plant response; conditions: Preemergence
In short: as §2

[7] = test system: johnsongrass (Sorghum halepense); experiment: Test B pre-/postemergence plant response
In short: as §2

[8] = test system: morningglory (Ipomoea coccinea); experiment: Test B pre-/postemergence plant response
In short: as §2

[9] = test system: Italian ryegrass (Lolium multiflorum); experiment: Test B pre-/postemergence plant response
In short: as §2

[10] = test system: green foxtail (Setaria viridis); experiment: Test B pre-/postemergence plant response
In short: as §2

[11] = test system: bermudagrass (Cynodon dactylon); experiment: Test B pre-/postemergence plant response; conditions: for Bermudagrass plant response rating: 8 g ai/ha
In short: as §2

[12] = test system: eastern black (E.B.) nightshade (Solanum ptycanthum); experiment: Test B pre-/postemergence plant response; conditions: Preemergence
In short: as §2

[13] = test system: surinam grass (Brachiaria decumbens); experiment: Test B pre-/postemergence plant response
In short: as §2

[14] = test system: cocklebur (Xanthium strumarium); experiment: Test B pre-/postemergence plant response; conditions: for Cocklebur plant response rating: 8 g ai/ha
In short: as §2

[15] = test system: large crabgrass (Digitaria sanguinalis); experiment: Test B pre-/postemergence plant response
In short: as §2

[16] = 8 g ai/ha, postemergence, 0-100 scale
[17] = 62 g ai/ha, scale 0 to 100, 0 no effect, 100 complete control
[18] = Postemergence, 16 g ai/ha, scale 0 to 100
[19] = Postemergence, 31 g ai/ha, scale 0 to 100
[20] = Postemergence, 62 g ai/ha, scale 0 to 100, 0 no effect, 100 complete control
[21] = Preemergence, 31 g ai/ha, scale 0 to 100 (0 no effect, 100 complete control)
[22] = Preemergence, 62 g ai/ha, scale 0 to 100
[23] = Preemergence, 8 g ai/ha, scale 0 to 100
[24] = Preemergence, 16 g ai/ha, scale 0 to 100
[25] = Preemergence, 62 g ai/ha, 0 to 100 scale, 0 no effect, 100 complete control
[26] = Preemergence, 31 g ai/ha, 0 to 100 scale, 0 no effect, 100 complete control
[27] = 31 g ai/ha, scale 0 to 100 (0 no effect, 100 complete control)
[28] = Preemergence, 16 g ai/ha, scale 0 to 100 (0 no effect, 100 complete control)

SMILES: CCOC(=O)Oc1cnn(C)c(=O)c1-n1nc(-c2ccc(Cl)cc2)cc1C [Compound 53]
- Barley plant response rating [1, 16]: 0
- Plant response rating, Barley ([1]; 16 g ai/ha): 0
- Plant response rating, Barley ([1]; 31 g ai/ha): 0
- Plant response rating, Barley ([1]; 62 g ai/ha): 0
- Chickweed plant response rating [2, 16]: 0
- Plant response rating, Chickweed ([2]; 16 g ai/ha, scale 0 to 100): 0
- Plant response rating, Chickweed ([2]; 31 g ai/ha, scale 0 to 100): 0
- Plant response rating, Chickweed [2, 17]: 0
- Windgrass plant response rating [3, 16]: 0
- Plant response rating, Windgrass ([3]; 16 g ai/ha, scale 0 to 100): 20
- Plant response rating, Windgrass ([3]; 31 g ai/ha, scale 0 to 100): 40
- Plant response rating, Windgrass [3, 17]: 60
- Soybean plant response rating (soybean (Glycine max); [16]): 0
- Plant response rating, Soybean (soybean (Glycine max); [18]): 0
- Plant response rating, Soybean (soybean (Glycine max); [19]): 0
- Plant response rating, Soybean (soybean (Glycine max); [20]): 0
- Plant response rating, Soybean (soybean (Glycine max); [21]): 0
- Plant response rating, Soybean (soybean (Glycine max); [22]): 65
- Soybean plant response rating (soybean (Glycine max); [23]): 0
- Soybean plant response rating (soybean (Glycine max); [24]): 0
- Wheat plant response rating [4, 16]: 5
- Plant response rating, Wheat [4, 18]: 55
- Plant response rating, Wheat [4, 19]: 85
- Plant response rating, Wheat [4, 20]: 85
- Plant response rating, Wheat [4, 21]: 0
- Plant response rating, Wheat [4, 25]: 55
- Wheat plant response rating [4, 24]: 0
- Goosegrass plant response rating [5, 16]: 20
- Plant response rating, Goosegrass [5, 18]: 60
- Plant response rating, Goosegrass [5, 19]: 65
- Plant response rating, Goosegrass [5, 20]: 100
- Plant response rating, Goosegrass [5, 26]: 0
- Plant response rating, Goosegrass [5, 22]: 0
- Goosegrass plant response rating [5, 23]: 0
- Goosegrass plant response rating [5, 24]: 0
- Plant response rating, Russian Thistle [6, 27]: 0
- Plant response rating, Russian Thistle ([6]; 62 g ai/ha, scale 0 to 100): 0
- Russian Thistle plant response rating ([6]; 8 g ai/ha, scale 0 to 100): 0
- Russian Thistle plant response rating ([6]; 16 g ai/ha, scale 0 to 100): 0
- Johnsongrass plant response rating [7, 16]: 35
- Plant response rating, Johnsongrass [7, 18]: 70
- Plant response rating, Johnsongrass [7, 19]: 98
- Plant response rating, Johnsongrass [7, 20]: 100
- Plant response rating, Johnsongrass [7, 26]: 75
- Plant response rating, Johnsongrass [7, 22]: 100
- Johnsongrass plant response rating [7, 23]: 45
- Johnsongrass plant response rating [7, 24]: 65
- Morningglory plant response rating [8, 16]: 0
- Plant response rating, Morningglory [8, 18]: 0
- Plant response rating, Morningglory [8, 19]: 0
- Plant response rating, Morningglory [8, 20]: 0
- Plant response rating, Morningglory [8, 21]: 0
- Plant response rating, Morningglory [8, 22]: 0
- Morningglory plant response rating [8, 23]: 0
- Morningglory plant response rating [8, 24]: 0
- Ryegrass, Italian plant response rating [9, 16]: 85
- Plant response rating, Ryegrass, Italian [9, 18]: 90
- Plant response rating, Ryegrass, Italian [9, 19]: 100
- Plant response rating, Ryegrass, Italian [9, 20]: 100
- Plant response rating, Ryegrass, Italian [9, 21]: 100
- Plant response rating, Ryegrass, Italian [9, 22]: 100
- Ryegrass, Italian plant response rating [9, 23]: 80
- Ryegrass, Italian plant response rating [9, 24]: 100
- Foxtail, Green plant response rating [10, 16]: 95
- Plant response rating, Foxtail, Green [10, 18]: 95
- Plant response rating, Foxtail, Green [10, 19]: 100
- Plant response rating, Foxtail, Green [10, 20]: 100
- Plant response rating, Foxtail, Green [10, 26]: 100
- Plant response rating, Foxtail, Green [10, 22]: 100
- Foxtail, Green plant response rating [10, 23]: 95
- Foxtail, Green plant response rating [10, 24]: 100
- Bermudagrass plant response rating ([11]; postemergence, 0-100 scale): 70
- Plant response rating, Bermudagrass [11, 18]: 100
- Plant response rating, Bermudagrass [11, 19]: 100
- Plant response rating, Bermudagrass [11, 20]: 100
- Bermudagrass plant response rating ([11]; Preemergence, scale 0 to 100 (0 no effect, 100 complete control)): 0
- Plant response rating, Bermudagrass [11, 28]: 0
- Plant response rating, Bermudagrass [11, 26]: 0
- Plant response rating, Bermudagrass [11, 22]: 0
- Plant response rating, Nightshade, E. B. [12, 27]: 15
- Plant response rating, Nightshade, E. B. ([12]; 62 g ai/ha, scale 0 to 100): 20
- Nightshade, E. B. plant response rating ([12]; 8 g ai/ha, scale 0 to 100): 0
- Nightshade, E. B. plant response rating ([12]; 16 g ai/ha, scale 0 to 100): 0
- Surinam Grass plant response rating [13, 16]: 75
- Plant response rating, Surinam Grass [13, 18]: 98
- Plant response rating, Surinam Grass [13, 19]: 100
- Plant response rating, Surinam Grass [13, 20]: 100
- Plant response rating, Surinam Grass [13, 21]: 60
- Plant response rating, Surinam Grass [13, 25]: 95
- Surinam Grass plant response rating [13, 23]: 0
- Surinam Grass plant response rating [13, 24]: 20
- Cocklebur plant response rating ([14]; postemergence, 0-100 scale): 0
- Plant response rating, Cocklebur [14, 18]: 0
- Plant response rating, Cocklebur [14, 19]: 0
- Plant response rating, Cocklebur [14, 20]: 0
- Plant response rating, Cocklebur [14, 28]: 0
- Plant response rating, Cocklebur [14, 26]: 0
- Plant response rating, Cocklebur [14, 22]: 0
- Cocklebur plant response rating ([14]; Preemergence, scale 0 to 100): 0
- Crabgrass, Large plant response rating [15, 16]: 65
- Plant response rating, Crabgrass, Large [15, 18]: 85
- Plant response rating, Crabgrass, Large [15, 19]: 90
- Plant response rating, Crabgrass, Large [15, 20]: 100
- Plant response rating, Crabgrass, Large [15, 26]: 0
- Plant response rating, Crabgrass, Large [15, 22]: 0
- Crabgrass, Large plant response rating [15, 23]: 0
- Crabgrass, Large plant response rating [15, 24]: 0
